Data taken from patent US20240132478A1, “COCRYSTAL” (Syndesi Therapeutics SA, priority 2020, published 2024).
Where two headings read alike, the source gives them in different places.

Assays:
Format in all cases: physicochemical
[1] = Gravimetric Vapour Sorption (GVS) moisture sorption isotherm; settings: for GVS reversible water uptake: between 0-90% RH; for Hygroscopicity: in words, by GVS
Experimental: Sorption isotherms were obtained using a SMS DVS Intrinsic moisture sorption analyser, controlled by DVS Intrinsic Control software. The sample temperature was maintained at 25° C. by the instrument controls. The humidity was controlled by mixing streams of dry and wet nitrogen, with a total flow rate of 200 ml/min. The relative humidity was measured by a calibrated Rotronic probe (dynamic range of 1.0-100% RH), located near the sample. The weight change, (mass relaxation) of the sample as a function of % RH was constantly monitored by a microbalance (accuracy ±0.005 mg). Typically, 5-30 mg of sample was placed in a tared mesh stainless steel basket under ambient conditions. The sample was loaded and unloaded at 40% RH and 25° C. (typical room conditions). A moisture sorption isotherm was performed as outlined below (2 scans per complete cycle). The standard isotherm was performed at 25° C. at 10% RH intervals over a 0-90% RH range. Typically, a double cycle (4 scans) was carried out. Data analysis was carried out within Microsoft Excel using the DVS Analysis Suite.
The sample was recovered after completion of the isotherm and re-analysed by XRPD.

[2] = Storage stability at elevated temperature and humidity (XRPD and HPLC purity after storage); settings: for Storage: XRPD pattern: 40° C./75% RH, after 7 days; for Stability at 25° C./97% RH and 40° C./75% RH: XRPD after storage; for Stability to increased temperature and humidity: in words, increased temperature (40° C.) and high humidity; for XRPD after storage at 40° C./75% RH: 7 days
Experimental: Bruker AXS D8 Advance: XRPD diffractograms were collected on a Bruker D8 diffractometer using Cu Kα radiation (40 kV, 40 mA) and a θ-2θ goniometer fitted with a Ge monochromator. The incident beam passes through a 2.0 mm divergence slit followed by a 0.2 mm anti-scatter slit and knife edge. The diffracted beam passes through an 8.0 mm receiving slit with 2.5° Soller slits followed by the Lynxeye Detector. The software used for data collection and analysis was Diffrac Plus XRD Commander and Diffrac Plus EVA respectively. Samples were run under ambient conditions as flat plate specimens using powder as received. The sample was prepared on a polished, zero-background (510) silicon wafer by gently pressing onto the flat surface or packed into a cut cavity. The sample was rotated in its own plane. The details of the data collection method are: • Angular range: 2 to 42° 2θ • Step size: 0.05° 2θ • Collection time: 0.5 s/step (total collection time: 6.40 min)
Purity analysis was performed on an Agilent Ip 100/Infinity 111260 series system equipped with a diode array detector and using OpenLAB software. The full method details are provided below:
The three potential cocrystals were characterised using DSC, 1H NMR, TGA and by evaluating their stability with XRPD after 7 or 8 days of being stored at 40° C./75% RH. All three cocrystals were unchanged by XRPD after storage at 40° C./75% RH and none had significant amounts of solvent present (Table 28). The 4 HBA cocrystal appeared to have a similar melt to the starting material (ca. 85° C.). […] All initially appeared to have a 1:1 stoichiometry. […]

[3] = Thermo-Gravimetric Analysis (TGA)
Experimental: TA Instruments Discovery TGA: TGA data were collected on a TA Instruments Discovery TGA, equipped with a 25 position auto-sampler. Typically, 5 10 mg of each sample was loaded onto a pre-tared aluminium DSC pan and heated at 10° C./min from ambient temperature to 350° C. A nitrogen purge at 25 mlmL/min was maintained over the sample. The instrument control software was TRIOS and the data were analysed using Universal Analysis.

[4] = Differential Scanning Calorimetry (DSC); settings: for Melting point (onset): * = multiple thermal events; for DSC Endotherm, enthalpy / DSC Endotherm, onset temp: single endotherm; for DSC Endotherm, onset temp: followed by exothermic event
Experimental: TA Instruments Q2000: DSC data were collected on a TA Instruments Q2000 equipped with a 50 position auto sampler. Typically, 0.5 3 mg of each sample, in a pin-holed aluminium pan, was heated at 10° C./min from 25° C. to 235° C. A purge of dry nitrogen at 50 mlmL/min was maintained over the sample. The instrument control software was Advantage for Q Series and Thermal Advantage and the data were analysed using Universal Analysis or TRIOS.
TA Instruments Discovery DSC: DSC data were also collected on a TA Instruments Discovery DSC equipped with a 50 position auto-sampler. Typically, 0.5 3 mg of each sample, in a pin-holed aluminium pan, was heated at 10° C./min from 25° C. to 235° C. A purge of dry nitrogen at 50 mlmL/min was maintained over the sample. The instrument control software was TRIOS and the data were analysed using TRIOS or Universal Analysis.

[5] = Variable temperature XRPD (VT-XRPD)
Experimental: Non-ambient conditions: For variable temperature (VT-XRPD) experiments samples were mounted on an Anton Paar DHS 900 hot stage at ambient conditions. The sample was then heated to the appropriate temperature at 10° C./min and subsequently held isothermally for 2 minutes before data collection. Samples were prepared and analysed on a silicon wafer mounted to the hot stage using a heat-conducting paste.

[6] = Storage stability at elevated temperature and humidity (XRPD and HPLC purity after storage)

| Hygroscopicity (GVS) [1] | XRPD post-GVS [1] | Hygroscopicity [1] | Storage: XRPD pattern [2] | Stability at 25° C./97% RH and 40° C./75% RH [2] | Stability to increased temperature and humidity [2] | Melting point (onset) [4] | DSC Endotherm, enthalpy [4] | DSC Endotherm, onset temp [4] | VT-XRPD temperature at which sample melted [5] | Storage: XRPD pattern ([6]; 25° C./97% RH, after 7 days) | XRPD after storage at 40° C./75% RH [2] | SMILES | GVS reversible water uptake [1] | VT-XRPD pattern on heating [5] | also measured |
| --- | --- | --- | --- | --- | --- | --- | --- | --- | --- | --- | --- | --- | --- | --- | --- |
| Slightly hygroscopic | Some changes by XRPD post-GVS | only slightly hygroscopic | XRPD pattern unchanged after 7 days | Stable, | remains stable | 138.2 °C | 91 J/g | 138.2 °C | melted at ca. 139 °C | XRPD pattern unchanged after 7 days | – | O=C(O)c1ccc(O)cc1O.O=C(O)c1ccc(O)cc1O.O=C1C[C@H](c2cc(F)c(F)c(F)c2)CN1Cn1ncnc1Cl [2,4-DHBA Pattern 1] | 0.53% w/w reversible water uptake between 0-90% | XRPD pattern remained unchanged until the sample | XRPD post-GVS ([1]; sample re-analysed by XRPD after isotherm): slight changes; TGA mass loss prior to dissociation/degradation [3]: No significant mass loss prior to dissociation/; TGA w/w loss on dissociation/degradation ([3]; followed by continual decomposition): degradation then 43.4% w/w loss followed by continual; Storage: Purity ([6]; 25° C./97% RH, after ca 1 month on storage): Purity: 99.7% (after ca 1 month on storage); Storage: Purity ([6]; 40° C./75% RH, after ca 1 month on storage): Purity: 97.9% (after ca 1 month on storage); XRPD after storage at 40° C./75% RH ([6]; 8 days): 8 days: Unchanged |
| Slightly hygroscopic | Unchanged by XRPD post-GVS | only slightly hygroscopic | XRPD Pattern unchanged after 7 days | – | remains stable | – | 85 J/g | 113.3 °C | it melted at ca. 113 °C | XRPD Pattern unchanged after 7 days | 7 days: Unchanged | O=C(O)c1cc(O)cc(O)c1.O=C1C[C@H](c2cc(F)c(F)c(F)c2)CN1Cn1ncnc1Cl [3,5-DHBA Pattern 1] | ~0.2% w/w reversible water uptake | XRPD pattern remained unchanged until | TGA onset of dissociation/decomposition [3]: ca. 120 °C; Storage: Purity ([6]; 25° C./97% RH, 7 days): Purity: 99.9%; Storage: Purity ([6]; 40° C./75% RH, 7 days): Purity: 99.7% |
| Non-hygroscopic | RH, unchanged by XRPD post-GVS | non-hygroscopic | – | Stable, | stable | 87.7° C.* | – | – | – | – | 7 days: Unchanged | O=C(O)c1ccc(O)cc1.O=C1C[C@H](c2cc(F)c(F)c(F)c2)CN1Cn1ncnc1Cl [4-HBA Pattern 1] | ~0.11% w/w reversible water uptake between 0-90% | XRPD pattern changes slightly on heating between 60 °C | TGA w/w loss ([3]; from 114-268° C., followed by continual decomposition): 29.0% w/w loss from 114-268 °C; DSC 1st Endotherm, enthalpy [4]: 8 J/g; DSC 1st Endotherm, onset temp [4]: 70.6 °C; DSC 2nd Endotherm, enthalpy [4]: 56 J/g; DSC 2nd Endotherm, onset temp [4]: 87.7 °C; DSC Broad exotherm, enthalpy [4]: 19 J/g; DSC Broad exotherm, onset temp [4]: 110 °C; Storage: Purity ([6]; 25° C./97% RH, 11 days): Purity: 99.9%; Storage: XRPD pattern ([6]; 25° C./97% RH, after 11 days): XRPD pattern unchanged after 11 days; Storage: Purity ([6]; 40° C./75% RH, 11 days): Purity: 99.7%; Storage: XRPD pattern ([6]; 40° C./75% RH, after 11 days): XRPD pattern unchanged after 11 days |
| – | – | – | – | Stable, | – | 113.3 °C | – | – | – | – | – | O=C(O)c1cc(O)cc(O)c1.O=C1C[C@@H](c2cc(F)c(F)c(F)c2)CN1Cn1ncnc1Cl [ARP-1725-71-02C] | – | – | – |
